According to PMC4946998 (Journal of cellular physiology, 2016):
Like-named read-outs stand apart in the source and are kept apart here.

Assays:
MMP-2 = MMP-2 (Homo sapiens, UniProt P08253); conditions: read-out: IC50 MMP-2; average of three determinations, SD <10%
MMP-3 = MMP-3 (Homo sapiens, UniProt P08254); conditions: read-out: IC50 MMP-3; average of three determinations, SD <10%
MMP-8 = MMP-8 (Homo sapiens, UniProt P22894); conditions: read-out: IC50 MMP-8; average of three determinations, SD <10%
Sequence of MMP-8 (P22894 101-467, species assumed): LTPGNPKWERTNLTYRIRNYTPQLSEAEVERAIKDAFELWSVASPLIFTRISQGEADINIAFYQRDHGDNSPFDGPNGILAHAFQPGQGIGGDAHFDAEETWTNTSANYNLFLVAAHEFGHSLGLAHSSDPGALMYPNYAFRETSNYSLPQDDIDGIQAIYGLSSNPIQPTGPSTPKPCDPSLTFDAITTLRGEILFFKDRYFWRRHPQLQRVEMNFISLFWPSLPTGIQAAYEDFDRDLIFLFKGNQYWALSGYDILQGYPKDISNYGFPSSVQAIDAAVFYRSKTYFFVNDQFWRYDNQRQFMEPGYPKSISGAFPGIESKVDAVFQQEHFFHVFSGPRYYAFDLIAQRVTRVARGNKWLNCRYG

MMP-9 = MMP-9 (Homo sapiens, UniProt P14780); conditions: read-out: IC50 MMP-9; average of three determinations, SD <10%
Sequence of MMP-9 (P14780 107-707 limits assumed): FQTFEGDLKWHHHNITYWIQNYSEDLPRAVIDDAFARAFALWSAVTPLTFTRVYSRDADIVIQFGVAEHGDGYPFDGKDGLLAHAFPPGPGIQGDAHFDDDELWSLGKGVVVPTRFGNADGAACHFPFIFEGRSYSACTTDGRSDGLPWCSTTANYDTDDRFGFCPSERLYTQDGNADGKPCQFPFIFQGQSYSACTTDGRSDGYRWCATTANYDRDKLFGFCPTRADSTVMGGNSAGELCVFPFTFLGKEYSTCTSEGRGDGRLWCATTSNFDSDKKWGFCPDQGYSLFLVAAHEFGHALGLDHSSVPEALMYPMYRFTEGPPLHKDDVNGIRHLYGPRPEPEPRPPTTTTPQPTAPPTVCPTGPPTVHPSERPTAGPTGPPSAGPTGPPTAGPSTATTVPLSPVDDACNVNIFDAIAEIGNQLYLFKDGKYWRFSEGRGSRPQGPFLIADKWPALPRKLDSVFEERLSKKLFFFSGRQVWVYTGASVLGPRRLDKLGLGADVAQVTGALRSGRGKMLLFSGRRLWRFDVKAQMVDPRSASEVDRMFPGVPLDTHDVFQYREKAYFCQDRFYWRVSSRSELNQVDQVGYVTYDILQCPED

[1] = tested on: IL-1β, IL-6, CXCL1, MMPs -1,-3,-9,-13 mRNA transcripts
corneal opacity [2] = conditions: CM
MMP-14 cd = MMP-14 cd (Homo sapiens, UniProt P50281); conditions: read-out: IC50 MMP-14; average of three determinations, SD <10%
[3] = tested on: inflammatory cytokines and MMPs in the cornea; conditions: naïve WT mice, CAM12 IP QD for 5 days versus PBS; data not shown
[4] = tested on: corneal epithelial defect; conditions: CM; for wound healing: day 5
MMP-1 = MMP-1 (Homo sapiens, UniProt P03956); conditions: read-out: IC50 MMP-1; average of three determinations, SD <10%
Sequence of MMP-1 (P03956 100-469): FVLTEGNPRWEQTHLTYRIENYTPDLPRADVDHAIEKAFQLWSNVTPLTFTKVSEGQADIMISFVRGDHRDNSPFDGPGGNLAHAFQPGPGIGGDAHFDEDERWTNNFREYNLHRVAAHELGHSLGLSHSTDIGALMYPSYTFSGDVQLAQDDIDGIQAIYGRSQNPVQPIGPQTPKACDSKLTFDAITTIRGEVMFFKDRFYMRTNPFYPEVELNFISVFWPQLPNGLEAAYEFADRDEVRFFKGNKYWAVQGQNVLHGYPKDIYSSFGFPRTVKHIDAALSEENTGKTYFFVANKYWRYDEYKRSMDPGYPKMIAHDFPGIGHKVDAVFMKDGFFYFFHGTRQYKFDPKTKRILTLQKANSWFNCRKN

corneal opacity [5] = conditions: WT, CM, 2D post injury; ref Bian et al., 2016; cited from earlier work
[6] = tested on: MMP-1 immunoreactivity; Gr-1+ cells; conditions: WT mice, CM, topical Dex; not in MMP-8KO mice

Sequence of MMP-3 (P08254 100-477): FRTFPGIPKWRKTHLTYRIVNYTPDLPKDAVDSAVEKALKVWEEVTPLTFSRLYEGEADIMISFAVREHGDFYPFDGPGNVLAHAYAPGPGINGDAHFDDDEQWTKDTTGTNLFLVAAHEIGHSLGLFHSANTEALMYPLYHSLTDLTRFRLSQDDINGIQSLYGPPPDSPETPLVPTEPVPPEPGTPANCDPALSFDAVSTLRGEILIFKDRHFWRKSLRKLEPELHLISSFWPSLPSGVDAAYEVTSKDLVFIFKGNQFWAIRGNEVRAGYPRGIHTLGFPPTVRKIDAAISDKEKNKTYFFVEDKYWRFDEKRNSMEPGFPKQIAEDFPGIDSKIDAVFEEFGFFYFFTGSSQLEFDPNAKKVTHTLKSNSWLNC
Sequence of MMP-2 (P08253 110-660): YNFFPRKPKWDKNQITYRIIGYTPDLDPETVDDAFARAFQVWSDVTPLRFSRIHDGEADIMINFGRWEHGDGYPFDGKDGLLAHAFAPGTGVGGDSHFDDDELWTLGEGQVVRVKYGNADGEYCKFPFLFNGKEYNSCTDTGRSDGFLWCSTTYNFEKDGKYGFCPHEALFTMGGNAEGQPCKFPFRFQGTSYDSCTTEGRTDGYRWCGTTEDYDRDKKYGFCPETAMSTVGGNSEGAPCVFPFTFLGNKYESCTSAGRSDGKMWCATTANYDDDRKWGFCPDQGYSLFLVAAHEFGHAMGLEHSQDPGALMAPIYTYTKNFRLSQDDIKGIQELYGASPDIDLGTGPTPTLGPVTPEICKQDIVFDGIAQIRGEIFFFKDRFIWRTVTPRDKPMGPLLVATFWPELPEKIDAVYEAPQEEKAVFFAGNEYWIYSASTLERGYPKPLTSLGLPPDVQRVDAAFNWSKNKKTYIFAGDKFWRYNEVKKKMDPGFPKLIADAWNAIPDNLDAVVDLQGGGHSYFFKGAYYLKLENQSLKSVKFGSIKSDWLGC

Compound: O=C(NO)c1ccccc1S(=O)(=O)c1ccc(-c2ccc(N3CCOCC3)cc2)cc1 [CAM12, N-Hydroxy-2-((4′-morpholino-[1,1′-biphenyl]-4-yl)sulfonyl) benzamide]
- IC50 (MMP-2): 0.024 µM
- IC50 (MMP-3): 12 µM
- IC50 (MMP-8): 0.057 µM
- IC50 (MMP-9): 2.3 µM
- MMP-13 mRNA, CAM12 IP versus controls ([1]; WT mice, CM 2D and 5D, Dex topical treatment): higher MMP-13 mRNA transcripts
- IL-1β, IL-6, MMP-9 mRNA, CAM12 IP versus controls ([1]; WT mice, CM 2D and 5D, both Dex and BSS topical treatment): higher expression of IL-1β, IL-6, MMP-9
- MMP-1, -3 mRNA, CAM12 IP versus controls ([1]; WT mice, CM 5D, Dex topical treatment): higher levels of MMP-1, -3
- corneal opacity score, topical Dex + CAM12 IP versus Dex + vehicle IP (corneal opacity [2]; WT mice, 100 nM CAM12 IP QD): higher corneal opacity score
- IC50 (MMP-14 cd): 1.14 µM
- expression of inflammatory cytokines and MMPs in the cornea [3]: no change in expression of inflammatory cytokines and MMPs
- re-epithelialization, topical Dex + CAM12 IP versus Dex + vehicle IP ([4]; WT mice, 100 nM CAM12 IP QD): delayed re epithelialization
- IC50 (MMP-1): 16.7 µM

Compound: C[C@@H]1C[C@H]2[C@@H]3CCC4=CC(=O)C=C[C@]4(C)[C@@]3(F)[C@@H](O)C[C@]2(C)[C@@]1(O)C(=O)CO [Dex, Dexamethasone]
- cytokine and MMP transcripts, Dex versus BSS ([1]; MMP-8KO mice, CM 2D post injury): decreased IL-6, MMP-3, and MMP-9
- cytokine and MMP transcripts, Dex versus BSS ([1]; MMP-8KO mice, CM 5D post injury): decreased MMP-9 and MMP-13
- IL-1β and CXCL1 expression ([1]; MMP-8KO mice, CM, topical Dex, in contrast to WT): lost its ability to decrease IL-1β and CXCL1 expression
- cytokine and MMP transcripts, Dex versus BSS ([1]; WT mice, CM 2D post injury): significantly decreased IL-6, MMPs -3, -9, -13 transcripts
- cytokine and MMP transcripts, Dex versus BSS ([1]; WT mice, CM 5D): significantly decreased IL-6 and MMP-3
- corneal opacity score, Dex versus BSS (corneal opacity [5]): significantly lower opacity scores
- corneal opacity score, Dex-treated MMP-8KO versus Dex treated WT (corneal opacity [2]; 5 days post injury): significantly higher corneal opacity scores
- corneal opacity, topical Dex + vehicle IP versus topical BSS + vehicle IP (corneal opacity [2]; WT mice): significantly lower corneal opacity
- wound healing ([4]; Dex treated MMP-8KO mice): 40%
- wound healing ([4]; Dex treated WT mice): 75%
- influx of Gr-1+ cells into the wound site [6]: inhibited the influx
